Test results: patent US6492419B1, “Aqueous insecticidal pour-on formulation” (Schering-Plough Animal Health Corp., priority 1997, dated 2002)

What was measured:
Assay type in all cases: in vivo
[1] = Tissue residues after aqueous pour-on, sheep; conditions: 20 mg/kg pour-on, LOQ = 0.02 mg/kg
Experimental: (§1) Tissue residue studies were carried out following application of the aqueous pour-on to both sheep and cattle (Reference is made to page 1, lines 34 and 35 where it is mentioned that treatment with non aqueous pour-on formulations can lead to high tissue residues in animals treated with these formulations.)

[2] = Tissue residues after aqueous pour-on, cattle; conditions: 15 mg/kg pour-on, LOQ = 0.02 mg/kg
Experimental: as §1

[3] = tested on: sheep lice; experiment: Field efficacy (control of sheep lice); conditions: 25 g/L; for Pre treatment mean lice count: baseline
[4] = tested on: Bovicola ovis (Schrank), sheep body louse; experiment: Pen trial of diflubenzuron pour-on against sheep lice (Examples 2-4); conditions: for % Lice reduction: corrected lice counts
Description: Order—Phthiraptera, Sub Order—Mallophaga, Family—Trichodectidae, Genus—Damalinia (Bovicola, Trichodectes), Species—Bovicola ovis (Schrank) and Common name—Sheep body louse.
The sheep used in this study were a uniform line of Merino wethers heavily infected with lice.
The method requires examination of twenty partings each 10 cm long, along two contours on the left and right sides covering the wool growing regions of the animal. At each of the 40 recorded sites all live adult lice are counted. Site counts are summed to give a total count for the animal.
Within 24 hours of shearing, treatments were applied as a single stripe along the backline of the sheep. The dose rate applied was based on 20 mL of treatment per animal which is based on all test animals being in the 30.1-55 kg weight range.
The delivery apparatus for each formulation was a commercial applicator, set to deliver 1×20 mL doses to the sheep backline. The gun was calibrated using a volumetric cylinder and checked twice before and once after treatment.
To avoid the possibility of rain complicating the post treatment situation the sheep were kept in pens for a minimum of 48 hours. Then on the morning of the 25 th day of the trial, they were placed into their paddocks. […]

## O=C(NC(=O)c1c(F)cccc1F)Nc1ccc(Cl)cc1 [Diflubenzuron, diflubenzuron]
[1]; 1 day post treatment
  Level of diflubenzuron residues in tissues, Kidney: <LOQ
  Level of diflubenzuron residues in tissues, Liver: <LOQ
  Level of diflubenzuron residues in tissues, Muscle: <LOQ
[1]; 1 day post treatment, max
  Level of diflubenzuron residues in tissues, Inguinal fat: ≤ 0.02 max mg/kg
  Level of diflubenzuron residues in tissues, peri-renal fat: ≤ 0.03 max mg/kg
[1]; 3 days post treatment
  Level of diflubenzuron residues in tissues, Kidney: <LOQ
  Level of diflubenzuron residues in tissues, Liver: <LOQ
  Level of diflubenzuron residues in tissues, Muscle: <LOQ
[1]; 3 days post treatment, max
  Level of diflubenzuron residues in tissues, Inguinal fat: ≤ 0.04 max mg/kg
  Level of diflubenzuron residues in tissues, peri-renal fat: ≤ 0.02 max mg/kg
[1]; 7 days post treatment
  Level of diflubenzuron residues in tissues, Kidney: <LOQ
  Level of diflubenzuron residues in tissues, Liver: <LOQ
  Level of diflubenzuron residues in tissues, Muscle: <LOQ
[1]; 7 days post treatment, max
  Level of diflubenzuron residues in tissues, Inguinal fat: ≤ 0.03 max mg/kg
  Level of diflubenzuron residues in tissues, peri-renal fat: ≤ 0.02 max mg/kg
[1]; 14 days post treatment
  Level of diflubenzuron residues in tissues, Kidney: <LOQ
  Level of diflubenzuron residues in tissues, Liver: <LOQ
  Level of diflubenzuron residues in tissues, Muscle: <LOQ
  Level of diflubenzuron residues in tissues, peri-renal fat: <LOQ
[1]; 14 days post treatment, max
  Level of diflubenzuron residues in tissues, Inguinal fat: ≤ 0.02 max mg/kg
[1]; 21 days post treatment
  Level of diflubenzuron residues in tissues, Kidney: <LOQ
  Level of diflubenzuron residues in tissues, Liver: <LOQ
  Level of diflubenzuron residues in tissues, Muscle: <LOQ
  Level of diflubenzuron residues in tissues, peri-renal fat: <LOQ
[1]; 21 days post treatment, max
  Level of diflubenzuron residues in tissues, Inguinal fat: ≤ 0.05 max mg/kg
[1]; 42 days post treatment
  Level of diflubenzuron residues in tissues, Inguinal fat: <LOQ
  Level of diflubenzuron residues in tissues, Kidney: <LOQ
  Level of diflubenzuron residues in tissues, Liver: <LOQ
  Level of diflubenzuron residues in tissues, Muscle: <LOQ
  Level of diflubenzuron residues in tissues, peri-renal fat: <LOQ
[2]; 1 day post treatment
  Level of diflubenzuron residues in fat tissues, Inguinal fat: <LOQ
[2]; 3 days post treatment
  Level of diflubenzuron residues in fat tissues, Inguinal fat: <LOQ
[2]; 7 days post treatment
  Level of diflubenzuron residues in fat tissues, Inguinal fat: <LOQ
  Level of diflubenzuron residues in fat tissues, Peri-renal fat: <LOQ
[2]; 14 days post treatment
  Level of diflubenzuron residues in fat tissues, Inguinal fat: <LOQ
  Level of diflubenzuron residues in fat tissues, Peri-renal fat: <LOQ
[2]; bovine, peri-renal fat, topical, 1 day post treatment, read-out: Level of diflubenzuron residues in fat tissues, Peri-renal fat
  concentration at 1 day: 170 ng/g
[2]; bovine, peri-renal fat, topical, 3 days post treatment, read-out: Level of diflubenzuron residues in fat tissues, Peri-renal fat
  concentration at 3 days: 90 ng/g
[3]; Trial 1, Uraila, N.S.W., 1309 fine wool merinos, after 6 weeks
  % Lice reduction: 98.1%
[3]; Trial 1, Uraila, N.S.W., 1309 fine wool merinos, after 12 weeks
  % Lice reduction: 98.7%
[3]; Trial 1, Uraila, N.S.W., 1309 fine wool merinos, after 20 weeks
  % Lice reduction: 100%
[3]; Trial 1, Uraila, N.S.W., 1309 fine wool merinos
  Pre treatment mean lice count: 156
[3]; Trial 2, Guyra, N.S.W., 2000 super fine wool, after 6 weeks
  % Lice reduction: 100%
[3]; Trial 2, Guyra, N.S.W., 2000 super fine wool, after 12 weeks
  % Lice reduction: 100%
[3]; Trial 2, Guyra, N.S.W., 2000 super fine wool, after 20 weeks
  % Lice reduction: 100%
[3]; Trial 2, Guyra, N.S.W., 2000 super fine wool
  Pre treatment mean lice count: 41
[3]; Trial 3, Crookwell, N.S.W., 680 medium fine wool merinos, after 6 weeks
  % Lice reduction: 91.3%
[3]; Trial 3, Crookwell, N.S.W., 680 medium fine wool merinos, after 12 weeks
  % Lice reduction: 99.6%
[3]; Trial 3, Crookwell, N.S.W., 680 medium fine wool merinos, after 20 weeks
  % Lice reduction: 100%
[3]; Trial 3, Crookwell, N.S.W., 680 medium fine wool merinos
  Pre treatment mean lice count: 242
[3]; Trial 4, Lucindale, N.S.W, 1094 strong wool merinos, after 6 weeks
  % Lice reduction: 99.8%
[3]; Trial 4, Lucindale, N.S.W, 1094 strong wool merinos, after 12 weeks
  % Lice reduction: 100%
[3]; Trial 4, Lucindale, N.S.W, 1094 strong wool merinos, after 20 weeks
  % Lice reduction: 100%
[3]; Trial 4, Lucindale, N.S.W, 1094 strong wool merinos
  Pre treatment mean lice count: 35
[3]; Trial 5, Coonalpyn, S.A., 1101 strong wool merinos, after 6 weeks
  % Lice reduction: 99.6%
[3]; Trial 5, Coonalpyn, S.A., 1101 strong wool merinos, after 12 weeks
  % Lice reduction: 100%
[3]; Trial 5, Coonalpyn, S.A., 1101 strong wool merinos, after 20 weeks
  % Lice reduction: 100%
[3]; Trial 5, Coonalpyn, S.A., 1101 strong wool merinos
  Pre treatment mean lice count: 142
[3]; Trial 6, Lismore, Vic, 812 super fine merinos, after 6 weeks
  % Lice reduction: 99.5%
[3]; Trial 6, Lismore, Vic, 812 super fine merinos, after 12 weeks
  % Lice reduction: 100%
[3]; Trial 6, Lismore, Vic, 812 super fine merinos, after 20 weeks
  % Lice reduction: 100%
[3]; Trial 6, Lismore, Vic, 812 super fine merinos
  Pre treatment mean lice count: 51
[4]; 12.5 and 25.0 g/L, 20 ml dose along the backline of sheep, within 10 weeks of application
  lice killed: 95%
[4]; 12.5 and 25.0 g/L, 20 ml dose along the backline of sheep, within 20 weeks
  lice kills: 100%
[4]; 12.5 g/L pour-on, sheep, after 2 weeks
  % Lice reduction: 91.0%
[4]; 12.5 g/L pour-on, sheep, after 5 weeks
  % Lice reduction: 94.9%
[4]; 12.5 g/L pour-on, sheep, after 10 weeks
  % Lice reduction: 98.9%
[4]; 12.5 g/L pour-on, sheep, after 15 weeks
  % Lice reduction: 100.0%
[4]; 12.5 g/L pour-on, sheep, after 20 weeks
  % Lice reduction: 100.0%
[4]; 12.5 g/L, 20 mL backline (250 mg per sheep), 5 Merino wethers, week 0 (baseline)
  Mean Lice Counts: 161.8
[4]; 12.5 g/L, 20 mL backline, sheep, 2 weeks after treatment
  Mean Lice Counts: 6.8
[4]; 12.5 g/L, 20 mL backline, sheep, 5 weeks after treatment
  Mean Lice Counts: 1.8
[4]; 12.5 g/L, 20 mL backline, sheep, 10 weeks after treatment
  Mean Lice Counts: 0.4
[4]; 12.5 g/L, 20 mL backline, sheep, 15 weeks after treatment
  Mean Lice Counts: 0.0
[4]; 12.5 g/L, 20 mL backline, sheep, 20 weeks after treatment
  Mean Lice Counts: 0.0
[4]; 25.0 g/L pour-on, sheep, after 2 weeks
  % Lice reduction: 69.6%
[4]; 25.0 g/L pour-on, sheep, after 5 weeks
  % Lice reduction: 83.4%
[4]; 25.0 g/L pour-on, sheep, after 10 weeks
  % Lice reduction: 94.8%
[4]; 25.0 g/L pour-on, sheep, after 15 weeks
  % Lice reduction: 96.4%
[4]; 25.0 g/L pour-on, sheep, after 20 weeks
  % Lice reduction: 100.0%
[4]; 25.0 g/L, 20 mL backline (500 mg per sheep), 5 Merino wethers, week 0 (baseline)
  Mean Lice Counts: 120.6
[4]; 25.0 g/L, 20 mL backline, sheep, 2 weeks after treatment
  Mean Lice Counts: 17.2
[4]; 25.0 g/L, 20 mL backline, sheep, 5 weeks after treatment
  Mean Lice Counts: 4.4
[4]; 25.0 g/L, 20 mL backline, sheep, 10 weeks after treatment
  Mean Lice Counts: 1.4
[4]; 25.0 g/L, 20 mL backline, sheep, 15 weeks after treatment
  Mean Lice Counts: 1.0
[4]; 25.0 g/L, 20 mL backline, sheep, 20 weeks after treatment
  Mean Lice Counts: 0.0
